Data: US10653710B2, “Combination therapy for treating malignancies” (Agios Pharmaceuticals, Inc., priority 2015, dated 2020)
≈ marks a conversion by molar mass, not a printed value. Where two headings read alike, the source gives them in different places.

Columns and labels:
[1] = cited from earlier work
TF1-IDH1^R132H cells [2] = experiment: HBG and KLF1 RNA by RT-qPCR in EPO differentiation assay; assay type: cell-based; settings: concurrent schedule; for increase in HBG gene expression: COMPOUND 2 0.2 μM, AZA 1.0 μM, single agents or combined
Experimental: EPO differentiation assay in TF1-IDH1^R132H cells. […] Cells were treated with vehicle, AZA alone, COMPOUND 2 alone, or the combination of AZA+COMPOUND 2. In the sequential schedule, cells were pre-treated with AZA for three days before addition of COMPOUND 2. In the concurrent schedule, cells were co-treated with AZA and COMPOUND 2 throughout the assay. Endpoints assessed assays were: cell pellet color evaluation (hemoglobinization assay); HBG and KLF1 RNA by RT-qPCR; CD235a-positive cell populations by flow cytometry (differentiation markers); and Growth and apoptosis by IncuCyte Zoom real-time imaging.
Cells were treated with vehicle, AZA alone, COMPOUND 2 alone, or the combination of AZA+COMPOUND 2. In the sequential schedule, cells were pre-treated with AZA for three days before addition of COMPOUND 2. In the concurrent schedule, cells were co-treated with AZA and COMPOUND 2 throughout the assay.

TF-1-IDH1^R132H cells = experiment: growth and apoptosis by IncuCyte Zoom real-time imaging; assay type: cell-based; settings: AZA 1 μM; for cell growth compared to the DMSO control: COMPOUND 2 0.1, 0.3 or 1.0 μM; for induction of apoptosis: late time points (>60 hrs), combination with 0.1 and 0.3 μM COMPOUND 2
Experimental: (§1) EPO differentiation assay in TF1-IDH1^R132H cells. […] Endpoints assessed assays were: cell pellet color evaluation (hemoglobinization assay); HBG and KLF1 RNA by RT-qPCR; CD235a-positive cell populations by flow cytometry (differentiation markers); and Growth and apoptosis by IncuCyte Zoom real-time imaging.
In order to track cell growth and death in real-time, a real-time analysis was performed using IncuCyte Zoom (FIG. 4).

TF1-IDH1^R132H cells [3] = experiment: EPO differentiation assay, cell pellet color evaluation (hemoglobinization assay); assay type: cell-based; settings: concurrent schedule; COMPOUND 2 0.2 and 1.0 μM; AZA up to 1 uM
Description: as §1

TF1-IDH1^R132H cells [4] = experiment: CD235a-positive cell populations by flow cytometry in EPO differentiation assay; assay type: cell-based; settings: concurrent schedule
Description: as §1

[5] = solubility in fasted state simulated intestinal fluid (FASSIF); assay type: physicochemical; settings: pH 6.1, fassif, thermodynamic from solid, pH of 6.1 at 4 hours
Experimental: In comparison, amorphous spray-dried dispersions have a solubility of about 0.05 mg/mL to about 0.50 mg/mL in FASSIF at 3 hours.

Row | Compound | solubility ([1]; in dimethylsulfoxide (DMSO)) | increase in HBG gene expression (TF1-IDH1^R132H cells [2]) [fold] | cell growth compared to the DMSO control (TF-1-IDH1^R132H cells) | induction of apoptosis (TF-1-IDH1^R132H cells) | hemoglobinization (red color of cell pellets) (TF1-IDH1^R132H cells [3]) | further results
1 | Nc1ncn([C@@H]2O[C@H](CO)[C@@H](O)[C@H]2O)c(=O)n1 [AZA, 4-amino-1-β-D-ribofuranozyl-s-triazin-2(1H)-one] | soluble | 1 | slowed growth | increased apoptosis above the DMSO control | little or no effect on cell pellet color | solubility ([1]; in acetone, ethanol and methyl ketone): insoluble; solubility ([1]; in ethanol/water (50/50), propylene glycol and polyethylene glycol): slightly soluble; solubility ([1]; in water, water-saturated octanol, 5% dextrose in water, N-methyl-2-pyrrolidone, normal saline and 5% Tween 80 in water): sparingly soluble
2 | N#Cc1ccnc(N2C(=O)CC[C@H]2C(=O)N(c2cncc(F)c2)[C@H](C(=O)NC2CC(F)(F)C2)c2ccccc2Cl)c1 [COMPOUND 2, (S)-N-((S)-1-(2-chlorophenyl)-2-((3,3-difluorocyclobutyl)amino)-2-oxoethyl)-1-(4-cyanopyridin-2-yl)-N-(5-fluoropyridin-3-yl)-5-oxopyrrolidine-2-carboxamide] |  | 25 | slightly promoted cell growth | no effect on induction of apoptosis | increased hemoglobin production in a dose-dependent manner | RNA expression of differentiation marker KLF1 (TF1-IDH1^R132H cells [2]): Dose-dependent increases; RNA expression of differentiation marker HBG (TF1-IDH1^R132H cells [2]; combination with COMPOUND 2 0.2 μM): dose-dependent increases; erythroid differentiation marker CD235a (Glycophorin A) expression (TF1-IDH1^R132H cells [4]): increased erythroid differentiation marker CD235a
3 | Nc1ncn([C@H]2C[C@H](O)[C@@H](CO)O2)c(=O)n1 [Decitabine, 4-amino-1-(2-deoxy-β-D-erythro-pentofuranosyl)-1,3,5-triazin-2(1H)one] | soluble |  |  |  |  | solubility ([1]; in ethanol/water (50/50), methanol/water (50/50) and methanol): slightly soluble; solubility ([1]; in water): sparingly soluble
4 | N#Cc1ccnc(N2C(=O)CC[C@H]2C(=O)N(c2cncc(F)c2)[C@H](C(=O)NC2CC(F)(F)C2)c2ccccc2Cl)c1 [Form 2, (S)-N-((S)-1-(2-chlorophenyl)-2-((3,3-difluorocyclobutyl)amino)-2-oxoethyl)-1-(4-cyanopyridin-2-yl)-N-(5-fluoropyridin-3-yl)-5-oxopyrrolidine-2-carboxamide] |  |  |  |  |  | solubility at 4 h [5]: ~18 µg/mL (≈ 30.9 µM)
